The source of these data is patent EP0845266A2, “Sweet whey concentrate containing antioxidant compositions” (MK-Produktkontor GmbH, priority 1996, dated 1998).

This test deals with T1, Myeloperoxidase (MPO) (Homo sapiens, UniProt P05164).
T1 sequence (P05164 49-745): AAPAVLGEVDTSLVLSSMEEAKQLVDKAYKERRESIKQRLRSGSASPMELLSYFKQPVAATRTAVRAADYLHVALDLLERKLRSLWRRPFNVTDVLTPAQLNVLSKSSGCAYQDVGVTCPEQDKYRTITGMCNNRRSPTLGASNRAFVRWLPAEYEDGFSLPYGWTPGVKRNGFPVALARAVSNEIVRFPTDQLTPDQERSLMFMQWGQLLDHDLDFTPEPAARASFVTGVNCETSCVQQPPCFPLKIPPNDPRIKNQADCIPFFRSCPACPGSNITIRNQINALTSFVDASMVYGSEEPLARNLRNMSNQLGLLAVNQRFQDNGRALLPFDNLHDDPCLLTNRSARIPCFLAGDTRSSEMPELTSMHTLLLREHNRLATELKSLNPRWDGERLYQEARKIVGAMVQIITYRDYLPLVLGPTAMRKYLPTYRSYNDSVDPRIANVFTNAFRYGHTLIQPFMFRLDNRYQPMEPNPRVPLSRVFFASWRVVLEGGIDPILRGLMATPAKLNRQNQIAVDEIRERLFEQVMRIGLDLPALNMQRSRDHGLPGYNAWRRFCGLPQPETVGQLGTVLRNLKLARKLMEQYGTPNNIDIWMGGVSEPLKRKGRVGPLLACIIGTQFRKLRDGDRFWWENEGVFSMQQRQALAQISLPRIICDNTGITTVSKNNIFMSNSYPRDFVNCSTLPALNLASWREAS
The experiment in a line: Myeloperoxidase reaction: MPO-catalysed formation of HOCl, measured as ethylene release from ACC by gas chromatography. It counts as biochemical. The conditions noted are these: CAR, in mixtures SMK 3 mg im Ansatz, 30 min, 37 °C, pH 5,7, read-out: % Hemmung; for inhibition at 100 µM: 0,1 mM AN; for inhibition at 1000 µM: 1,0 mM AN. The text has this:
Die Inhibitionswirkung wurde in einem In-vitro-Teststystem geprüft, das die oxidativen Prozesse während eine Entzündung simulieren soll.
Myeloperoxidase (MPO) wird von aktivierten Leukozyten während der Degranulation in das Phagosom und das umliegende Gewebe abgegeben. Das Enzym katalysiert die Bildung von HOCl aus H2O2 und Chlorid. Durch Messung der HOCl-Konzentration in dem Reaktionssystem kann das Ausmaß der Inhibition bestimmt werden. Hypochlorit (HOCl) spaltet spezifisch Aminocyclopropancarbonsäure (ACC), wobei Ethylen entsteht.
Dieses wiederum kann gaschromatographisch identifiziert werden.
Der Einfluß einer Mischung aus Süßmolkekonzentrat (SMK) und Anserin bzw. Carnosin sowie der einzelnen Komponenten in den in Tabelle 1 angegebenen Konzentrationen auf die MPO-katalysierte Bildung von HOCl wurde untersucht. Tabelle 1
Es wurde folgender Ansatz verwendet: 0,15 M NaCl, 25 µM H2O2, 0,1 E MPO, 0,1 M Phosphatpuffer mit einem pH-Wert von 5,7 und 1 mM ACC. Die Inkubationsdauer beträgt 30 Minuten bei 37 °C. Die Ethylen-Freisetzungsrate eines Ansatzes ohne Zugabe potentieller Inhibitorstoffe entspricht einer Grundrate von 100% (0% Hemmung).

Structures are written as SMILES.

On to `Cn1cncc1C[C@H](NC(=O)CCN)C(=O)O` [AN, Anserin], for which the inhibition at 100 µM stood at 23% and the inhibition at 1000 µM is 84%.
With `NCCC(=O)N[C@@H](Cc1cnc[nH]1)C(=O)O` [CAR, Carnosin], the inhibition at 100 µM is 23% and the inhibition at 1000 µM turned out to be 86%.
